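Five compound concentrations were applied to cells in 96-well plates for 48 hours; endpoints were derived by simple linear interpolation of the resulting dose-response curve. The concentration for 50% growth inhibition is given as GI50.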 Activity calls are given as the source filed them. No stated cut-off is given here; in the data, active = GI50 up to about 1.1 µM and inactive = higher.
What was measured:
Assay in all cases: growth of human tumour cells (NCI), 48 h
SF-539 = tested on: SF-539
CAKI-1 = tested on: CAKI-1
IGROV-1 = tested on: IGROV-1
HOP-62 = tested on: HOP-62
SF-268 = tested on: SF-268
OVCAR-3 = tested on: OVCAR-3
NCI-H23 = tested on: NCI-H23
HCT-116 = tested on: HCT-116
PC-3 = tested on: PC-3
DU-145 = tested on: DU-145
UO-31 = tested on: UO-31
NCI-H522 = tested on: NCI-H522
Hs-578T = tested on: Hs-578T
SNB-75 = tested on: SNB-75
SK-MEL-2 = tested on: SK-MEL-2
EKVX = tested on: EKVX
TK-10 = tested on: TK-10
MDA-MB-435 = tested on: MDA-MB-435
SF-295 = tested on: SF-295
CCRF-CEM = tested on: CCRF-CEM
UACC-257 = tested on: UACC-257
HL-60 = tested on: HL-60
SK-MEL-28 = tested on: SK-MEL-28
HOP-92 = tested on: HOP-92
A549 = tested on: A549
MCF7 = tested on: MCF7
SN12C = tested on: SN12C
KM12 = tested on: KM12
LOX IMVI = tested on: LOX IMVI
M14 = tested on: M14
K562 = tested on: K562
OVCAR-8 = tested on: OVCAR-8
UACC-62 = tested on: UACC-62
786-0 = tested on: 786-0
HCC 2998 = tested on: HCC 2998
MDA-N = tested on: MDA-N
SK-MEL-5 = tested on: SK-MEL-5
BT-549 = tested on: BT-549
COLO 205 = tested on: COLO 205
NCI-H226 = tested on: NCI-H226
RPMI-8226 = tested on: RPMI-8226
HCT-15 = tested on: HCT-15
MOLT-4 = tested on: MOLT-4
RXF 393 = tested on: RXF 393
SNB-19 = tested on: SNB-19
MDA-MB-231 = tested on: MDA-MB-231
SK-OV-3 = tested on: SK-OV-3
SW-620 = tested on: SW-620

Measured: GI50

O=C(O)c1ccc(P(=O)(O)c2ccc(C(=O)O)cc2Br)c(Br)c1
inactive: SF-539 > 100 µM | CAKI-1 > 100 µM | IGROV-1 > 100 µM | HOP-62 > 100 µM | SF-268 > 100 µM | OVCAR-3 > 100 µM | NCI-H23 > 100 µM | HCT-116 > 100 µM | PC-3 > 100 µM | DU-145 > 100 µM | UO-31 > 100 µM | NCI-H522 > 100 µM | Hs-578T > 100 µM | SNB-75 > 100 µM | SK-MEL-2 > 100 µM | EKVX > 100 µM | TK-10 > 100 µM | MDA-MB-435 > 100 µM | SF-295 > 100 µM | CCRF-CEM > 10 µM | UACC-257 > 100 µM | HL-60 > 100 µM | SK-MEL-28 > 100 µM | HOP-92 > 100 µM | A549 > 100 µM | MCF7 > 100 µM | SN12C > 100 µM | KM12 > 100 µM | LOX IMVI > 100 µM | M14 > 100 µM | K562 > 100 µM | OVCAR-8 > 100 µM | UACC-62 > 100 µM | 786-0 > 100 µM | HCC 2998 > 100 µM | MDA-N > 100 µM | SK-MEL-5 > 100 µM | BT-549 > 100 µM | COLO 205 > 100 µM | NCI-H226 > 100 µM | RPMI-8226 > 100 µM | MOLT-4 > 100 µM | RXF 393 > 100 µM | SNB-19 > 100 µM | MDA-MB-231 > 100 µM | SK-OV-3 > 100 µM | SW-620 > 100 µM
> 100 µM: HCT-15

Source: ChEMBL document CHEMBL1201862, “PubChem BioAssay data set” (2004)
